For 13 molecules, TGI results are on record in PubChem BioAssay (NCI).

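1) Cells in 96-well plates. 2) Compound, 48 h, 5 concentrations. 3) Linear interpolation between surrounding doses. 4) Unreached endpoint = highest concentration. TGI is the concentration that stops growth completely.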

Some test systems named below: SK-OV-3 ovarian; SF-295 CNS; IGROV1 ovarian; LOX IMVI melanoma; 786-0 renal; SF-539 CNS; MOLT-4 leukemia; UO-31 renal; OVCAR-3 ovarian; A549 NSCLC.
Assay in all cases: growth of human tumour cells (NCI), 48 h

Take `O=[N+]([O-])c1ccc(N/N=C/CC(O)(C(F)(F)F)C(F)(F)F)c([N+](=O)[O-])c1`: the TGI with SK-OV-3 ovarian, in the experiment on SF-295 CNS, with IGROV1 ovarian, with LOX IMVI melanoma, with 786-0 renal and in the experiment with SF-539 CNS was above 10 µM throughout. The TGI was above 10 µM with MOLT-4 leukemia, above 10 µM in the experiment with UO-31 renal, 8.46 µM with OVCAR-3 ovarian and above 10 µM with A549 NSCLC.
For `CCOC(=O)c1c(-c2ccc(Cl)cc2)c(C#N)c(=S)n(C2OC(COC(C)=O)C(OC(C)=O)C(OC(C)=O)C2OC(C)=O)c1-c1ccccc1` (stereo not given), the TGI in the experiment with SK-OV-3 ovarian, with SF-295 CNS, in the experiment on IGROV1 ovarian, in the experiment on LOX IMVI melanoma, with 786-0 renal and in the experiment on SF-539 CNS was above 100 µM throughout. Besides, the TGI in the experiment on MOLT-4 leukemia, with UO-31 renal, in the experiment with OVCAR-3 ovarian and in the experiment on A549 NSCLC was above 100 µM in each case.
`C=C1c2nc3ccccc3n2C=C(c2ccc(C)cc2)N1c1ccc(C)cc1`: the TGI with SK-OV-3 ovarian, in the experiment with SF-295 CNS, with IGROV1 ovarian, in the experiment with LOX IMVI melanoma, in the experiment on 786-0 renal and with SF-539 CNS was above 100 µM each time. The TGI with MOLT-4 leukemia, in the experiment with UO-31 renal, with OVCAR-3 ovarian and in the experiment on A549 NSCLC was above 100 µM each time.
On to `Cc1nc2c(o1)C(=Nc1ccccc1)c1ccccc1C2=O`, for which the TGI in the experiment with SK-OV-3 ovarian came to 28 µM; with SF-295 CNS, 30.8 µM; with IGROV1 ovarian, 40.1 µM; in the experiment on LOX IMVI melanoma, 12.1 µM; in the experiment with 786-0 renal it was 28.5 µM; in the experiment with SF-539 CNS, 16.7 µM. Moreover, the TGI amounted to 48.3 µM with MOLT-4 leukemia, 20.6 µM in the experiment on UO-31 renal, 6.21 µM in the experiment with OVCAR-3 ovarian and 38.3 µM in the experiment with A549 NSCLC.
For `C=CC(OC(C)=O)c1ccc(OC(=O)C(C)C)c(OC)c1` (stereo not given), the TGI with SK-OV-3 ovarian was found to be 30.3 µM; with SF-295 CNS it was 24.7 µM; in the experiment with IGROV1 ovarian it was 28.7 µM; in the experiment with LOX IMVI melanoma, 5.18 µM; with 786-0 renal, 4.25 µM; with SF-539 CNS it was 22.6 µM. Further, the TGI is 36.2 µM with MOLT-4 leukemia, 10.9 µM in the experiment on UO-31 renal, 12.4 µM in the experiment with OVCAR-3 ovarian and 38.7 µM with A549 NSCLC.
On to `COC(=O)/C=C\C(C#N)(C#N)N=Cc1ccccc1`, for which the TGI came to 32.4 µM in the experiment on SK-OV-3 ovarian; 36.1 µM with SF-295 CNS; 25.9 µM with IGROV1 ovarian; 5.72 µM with LOX IMVI melanoma; 3.22 µM in the experiment with 786-0 renal; 9.71 µM with SF-539 CNS. Besides, the TGI in the experiment with MOLT-4 leukemia was 3.85 µM; in the experiment with UO-31 renal, 7.23 µM; with OVCAR-3 ovarian it was 4.97 µM; with A549 NSCLC, 34.3 µM.
`CC(=O)c1ccccc1NCC(=O)Nn1cnc2ccc(S(=O)(=O)Nc3ccccc3C(C)=O)cc2c1=O`: the TGI with SK-OV-3 ovarian, in the experiment with SF-295 CNS, with IGROV1 ovarian, with LOX IMVI melanoma, in the experiment with 786-0 renal and in the experiment with SF-539 CNS was above 100 µM throughout. For the same molecule, the TGI in the experiment on MOLT-4 leukemia, with UO-31 renal, in the experiment with OVCAR-3 ovarian and with A549 NSCLC was above 100 µM each time.
As to `CSc1c(C#N)c(N)nc2c(N=Nc3ccc(Br)cc3)c(N)nn12`, the TGI in the experiment with SK-OV-3 ovarian is 38.1 µM; in the experiment with SF-295 CNS it was 25.3 µM; in the experiment on IGROV1 ovarian it was 8.82 µM; with LOX IMVI melanoma, 3.58 µM; in the experiment with 786-0 renal, 11.3 µM; with SF-539 CNS, 23.6 µM. The TGI in the experiment on MOLT-4 leukemia worked out at 27.3 µM; in the experiment on UO-31 renal it was 28.6 µM; with OVCAR-3 ovarian, 6.77 µM; in the experiment with A549 NSCLC, 25.1 µM.
Consider `O=c1cc(NNc2cccc(F)c2)[nH]c(=O)[nH]1`, for which the TGI in the experiment on SK-OV-3 ovarian was above 100 µM; with SF-295 CNS, above 100 µM; in the experiment on IGROV1 ovarian, 46.7 µM; with LOX IMVI melanoma, 36.9 µM; in the experiment with 786-0 renal, 30.1 µM; in the experiment with SF-539 CNS, above 100 µM. For the same molecule, the TGI with MOLT-4 leukemia was 84.3 µM; with UO-31 renal, 95.8 µM; with OVCAR-3 ovarian, 30.1 µM; with A549 NSCLC, above 100 µM.
Regarding `CCO[C@@]1(COCc2ccccc2)OC(=O)C[C@@H]1N1C(=O)OC[C@@H]1c1ccccc1`, the TGI in the experiment on SK-OV-3 ovarian, in the experiment with SF-295 CNS, in the experiment on IGROV1 ovarian, with LOX IMVI melanoma, in the experiment with 786-0 renal and in the experiment with SF-539 CNS was above 100 µM in each case. Besides, the TGI with MOLT-4 leukemia, in the experiment with UO-31 renal, with OVCAR-3 ovarian and in the experiment on A549 NSCLC was above 100 µM throughout.
As to `Cc1ccc(C(=O)N(Cc2ccccc2)Cc2ccccc2)cc1N=NN(C)C`, the TGI with SK-OV-3 ovarian was 99.2 µM; in the experiment with SF-295 CNS, above 81.5 µM; with IGROV1 ovarian, above 100 µM; in the experiment with LOX IMVI melanoma, 15.6 µM; with 786-0 renal, above 100 µM; in the experiment on SF-539 CNS, 44.9 µM. Besides, the TGI in the experiment on MOLT-4 leukemia is above 100 µM; with UO-31 renal, above 71 µM; in the experiment on OVCAR-3 ovarian, 43.1 µM; with A549 NSCLC it was above 100 µM.
As for `O=c1[nH]c2ccccc2c(O)c1/C=N/C(=S)NCc1ccccc1`, the TGI with SK-OV-3 ovarian, in the experiment with SF-295 CNS, in the experiment on IGROV1 ovarian, in the experiment on LOX IMVI melanoma, in the experiment with 786-0 renal and in the experiment on SF-539 CNS was above 100 µM throughout. Besides, the TGI in the experiment on MOLT-4 leukemia, in the experiment with UO-31 renal, with OVCAR-3 ovarian and in the experiment with A549 NSCLC was above 100 µM in each case.
Turning to `COC12CCCN1c1ccn(Cc3ccccc3)c(=O)c1C2=O` (stereo not given), the TGI with SK-OV-3 ovarian, with SF-295 CNS, with IGROV1 ovarian, in the experiment on LOX IMVI melanoma, with 786-0 renal and in the experiment with SF-539 CNS was above 100 µM each time. For the same molecule, the TGI in the experiment on MOLT-4 leukemia, with UO-31 renal, in the experiment on OVCAR-3 ovarian and with A549 NSCLC was above 100 µM throughout.
